# Assay results reported in ChEMBL document CHEMBL4177534, “Discovery and evaluation of 1H-pyrrolo[2,3-b]pyridine based selective and reversible small molecule BTK inhibitors for the treatment of rheumatoid arthritis” (Bioorg Med Chem Lett, 2017).
# Columns and labels:
# Mus musculus [1] = assay: Ex-vivo inhibition of BTK in C57BL/6J mouse assessed as anti-mouse IgD antibody stimulated BCR mediated CD69 level in whole blood isolated from 30 mg/kg, po bid treated mouse measured after 2 hrs post first dose by flow cytometry relative to control; format: functional; design: scale not given: the % may be the effect or the level left
# [2] = target: Mitogen-activated protein kinase 8 (Mus musculus) (UniProt Q91Y86); assay: Inhibition of recombinant mouse N-terminal GST-tagged JNK1 expressed in baculovirus infected Sf9 cells assessed as change in enzyme activity at 1 uM in presence of 1 uM ATP relative to control; design: scale not given: the % may be the effect or the level left
# [3] = target: Homeodomain-interacting protein kinase 4 (Homo sapiens) (UniProt Q8NE63); assay: Inhibition of recombinant human full length N-terminal GST-tagged HIPK4 expressed in baculovirus infected Sf9 cells assessed as change in enzyme activity at 1 uM in presence of 2 uM ATP relative to control; design: scale not given: the % may be the effect or the level left
# Mus musculus [4] = assay: Ex-vivo inhibition of BTK in C57BL/6J mouse assessed as anti-mouse IgD antibody stimulated BCR mediated CD69 level in whole blood isolated from 30 mg/kg, po bid treated mouse measured after 24 hrs post first dose by flow cytometry relative to control; format: functional; design: scale not given: the % may be the effect or the level left
# [5] = target: Insulin-like growth factor 1 receptor (Homo sapiens) (UniProt P08069); assay: Inhibition of recombinant human N-terminal His tagged IGF1R (960 to end residues) expressed in baculovirus infected Sf9 cells assessed as change in enzyme activity at 1 uM in presence of 2 uM ATP relative to control; design: scale not given: the % may be the effect or the level left
# [6] = target: Mitogen-activated protein kinase kinase kinase 1 (Homo sapiens) (UniProt Q13233); assay: Inhibition of recombinant human N-terminal GST-tagged MEKK1 ([…] residues) expressed in baculovirus infected Sf9 cells assessed as change in enzyme activity at 1 uM in presence of 2 uM ATP relative to control; design: scale not given: the % may be the effect or the level left
# [7] = target: Tyrosine-protein kinase JAK1 (Homo sapiens, UniProt P23458); assay: Inhibition of JAK1 (unknown origin)
# Chain of Tyrosine-protein kinase JAK1 (P23458 whole entry): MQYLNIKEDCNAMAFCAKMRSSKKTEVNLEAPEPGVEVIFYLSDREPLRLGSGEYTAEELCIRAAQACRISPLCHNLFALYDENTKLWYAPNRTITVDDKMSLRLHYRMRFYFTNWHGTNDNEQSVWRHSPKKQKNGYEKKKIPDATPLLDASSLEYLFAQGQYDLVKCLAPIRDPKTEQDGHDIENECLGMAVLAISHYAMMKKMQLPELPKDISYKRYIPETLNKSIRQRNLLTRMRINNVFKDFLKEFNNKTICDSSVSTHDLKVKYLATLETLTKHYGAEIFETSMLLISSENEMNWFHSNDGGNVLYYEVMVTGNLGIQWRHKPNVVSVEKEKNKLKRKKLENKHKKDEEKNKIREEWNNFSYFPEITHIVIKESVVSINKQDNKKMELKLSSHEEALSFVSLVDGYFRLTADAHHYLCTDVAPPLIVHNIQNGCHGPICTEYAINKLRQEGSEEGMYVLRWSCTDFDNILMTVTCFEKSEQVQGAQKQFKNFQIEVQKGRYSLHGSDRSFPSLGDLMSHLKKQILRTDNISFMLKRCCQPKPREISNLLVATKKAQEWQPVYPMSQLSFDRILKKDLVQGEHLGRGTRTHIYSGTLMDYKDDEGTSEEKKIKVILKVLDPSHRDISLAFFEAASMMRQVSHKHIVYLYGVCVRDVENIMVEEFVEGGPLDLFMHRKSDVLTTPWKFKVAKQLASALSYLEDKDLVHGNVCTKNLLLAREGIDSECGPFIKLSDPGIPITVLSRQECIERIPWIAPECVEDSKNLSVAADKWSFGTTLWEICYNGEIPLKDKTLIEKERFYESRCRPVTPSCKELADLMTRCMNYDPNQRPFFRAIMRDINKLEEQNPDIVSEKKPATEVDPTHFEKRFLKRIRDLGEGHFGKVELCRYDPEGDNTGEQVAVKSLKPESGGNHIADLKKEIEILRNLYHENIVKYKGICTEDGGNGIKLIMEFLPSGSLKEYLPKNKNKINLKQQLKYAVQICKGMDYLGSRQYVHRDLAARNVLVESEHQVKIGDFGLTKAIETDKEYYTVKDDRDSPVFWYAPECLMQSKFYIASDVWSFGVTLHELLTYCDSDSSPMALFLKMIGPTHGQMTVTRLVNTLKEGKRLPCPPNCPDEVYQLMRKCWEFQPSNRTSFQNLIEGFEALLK
# [8] = target: T1, Tyrosine-protein kinase BTK (Mus musculus, UniProt P35991); assay: Inhibition of C57BL/6J mouse BTK assessed as decrease in anti-mouse IgM antibody stimulated BCR mediated CD69 upregulation preincubated for 30 mins followed by antibody challenge after 18 to 24 hrs by flow cytometry
# T1 sequence (P35991 whole entry): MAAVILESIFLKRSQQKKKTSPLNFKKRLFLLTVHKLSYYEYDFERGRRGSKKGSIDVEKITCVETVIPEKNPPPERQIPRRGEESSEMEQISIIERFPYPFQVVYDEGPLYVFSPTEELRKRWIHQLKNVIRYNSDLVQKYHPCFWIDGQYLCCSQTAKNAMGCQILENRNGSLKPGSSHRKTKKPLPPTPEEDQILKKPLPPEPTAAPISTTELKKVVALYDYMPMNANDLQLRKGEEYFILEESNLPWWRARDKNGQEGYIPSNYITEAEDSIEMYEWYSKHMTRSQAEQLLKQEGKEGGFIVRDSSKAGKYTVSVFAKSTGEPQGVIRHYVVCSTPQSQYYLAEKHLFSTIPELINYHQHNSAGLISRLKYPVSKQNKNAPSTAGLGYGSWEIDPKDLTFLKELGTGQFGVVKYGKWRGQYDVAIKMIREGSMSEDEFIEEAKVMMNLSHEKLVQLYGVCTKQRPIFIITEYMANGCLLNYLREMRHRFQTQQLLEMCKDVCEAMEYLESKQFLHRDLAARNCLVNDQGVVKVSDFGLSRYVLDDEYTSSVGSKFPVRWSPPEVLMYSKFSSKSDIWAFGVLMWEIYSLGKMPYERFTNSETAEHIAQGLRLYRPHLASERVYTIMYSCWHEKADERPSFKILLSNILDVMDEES
# [9] = target: Hepatocyte growth factor receptor (Homo sapiens) (UniProt P08581); assay: Inhibition of recombinant human N-terminal GST-tagged MET (956 to end residues) expressed in baculovirus infected Sf9 cells assessed as change in enzyme activity at 1 uM in presence of 1 uM ATP relative to control; design: scale not given: the % may be the effect or the level left
# Mus musculus [10] = assay: Dose normalized AUC (0 to 24 hrs) in mouse at 10 mg/kg, po; format: ADME, organism-based; settings: in vivo
# [11] = target: Serine/threonine-protein kinase Chk1 (Homo sapiens) (UniProt O14757); assay: Inhibition of recombinant human full length N-terminal GST/His tagged CHK1 expressed in baculovirus infected Sf9 cells assessed as change in enzyme activity at 1 uM in presence of 1 uM ATP relative to control; design: scale not given: the % may be the effect or the level left
# [12] = target: High affinity nerve growth factor receptor (Homo sapiens) (UniProt P04629); assay: Inhibition of recombinant human N-terminal GST-tagged TRKA (440 to end residues) expressed in baculovirus infected Sf9 cells assessed as change in enzyme activity at 1 uM in presence of 2 uM ATP relative to control; design: scale not given: the % may be the effect or the level left
# [13] = target: Receptor-type tyrosine-protein kinase FLT3 (Homo sapiens) (UniProt P36888); assay: Inhibition of recombinant human N-terminal GST-tagged FLT3 (571 to 993 residues) expressed in baculovirus infected Sf9 cells assessed as change in enzyme activity at 1 uM in presence of 2 uM ATP relative to control; design: scale not given: the % may be the effect or the level left
# Chain of Receptor-type tyrosine-protein kinase FLT3 (Homo sapiens) (P36888 whole entry, the tested form may be a part): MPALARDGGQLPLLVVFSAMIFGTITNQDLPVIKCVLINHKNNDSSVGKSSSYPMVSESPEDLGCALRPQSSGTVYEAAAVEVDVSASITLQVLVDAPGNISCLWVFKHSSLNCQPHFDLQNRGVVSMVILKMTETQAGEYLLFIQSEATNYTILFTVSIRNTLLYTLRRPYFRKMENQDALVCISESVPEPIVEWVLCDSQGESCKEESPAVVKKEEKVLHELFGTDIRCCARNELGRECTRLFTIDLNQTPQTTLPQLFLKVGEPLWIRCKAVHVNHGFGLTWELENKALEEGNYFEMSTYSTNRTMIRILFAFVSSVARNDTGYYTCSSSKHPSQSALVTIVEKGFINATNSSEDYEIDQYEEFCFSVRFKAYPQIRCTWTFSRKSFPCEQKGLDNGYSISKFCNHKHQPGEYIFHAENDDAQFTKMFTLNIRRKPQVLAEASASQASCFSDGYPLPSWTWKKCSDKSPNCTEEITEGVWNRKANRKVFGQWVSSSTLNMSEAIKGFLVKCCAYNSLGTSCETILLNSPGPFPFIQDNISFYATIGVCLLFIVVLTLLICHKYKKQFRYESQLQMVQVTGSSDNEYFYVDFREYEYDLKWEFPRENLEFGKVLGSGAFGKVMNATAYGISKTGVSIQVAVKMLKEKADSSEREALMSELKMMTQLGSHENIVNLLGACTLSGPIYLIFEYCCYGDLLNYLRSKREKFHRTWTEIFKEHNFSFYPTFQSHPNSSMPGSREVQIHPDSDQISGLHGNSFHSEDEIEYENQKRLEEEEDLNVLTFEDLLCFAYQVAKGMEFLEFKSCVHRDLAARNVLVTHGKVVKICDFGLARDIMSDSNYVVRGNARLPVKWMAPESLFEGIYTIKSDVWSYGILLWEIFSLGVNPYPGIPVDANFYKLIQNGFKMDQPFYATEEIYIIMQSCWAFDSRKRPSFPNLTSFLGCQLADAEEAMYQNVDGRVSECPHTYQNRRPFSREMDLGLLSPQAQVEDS
# [14] = target: Mitogen-activated protein kinase 14 (Homo sapiens) (UniProt Q16539); assay: Inhibition of recombinant human full length N-terminal GST-tagged p38alpha expressed in baculovirus infected Sf9 cells assessed as change in enzyme activity at 1 uM in presence of 1 uM ATP relative to control; design: scale not given: the % may be the effect or the level left
# Mus musculus [15] = assay: Ex-vivo inhibition of BTK in C57BL/6J mouse assessed as anti-mouse IgD antibody stimulated BCR mediated CD69 level in whole blood isolated from 100 mg/kg, po bid treated mouse measured after 24 hrs post first dose by flow cytometry relative to control; format: functional; design: scale not given: the % may be the effect or the level left
# [16] = Metabolic stability in rat liver microsomes assessed as metabolism rate; format: ADME, microsome
# [17] = target: T1, Tyrosine-protein kinase BTK; assay: Inhibition of mouse BTK assessed as decrease in anti-CD3epsilon antibody stimulated TCR mediated CD69 upregulation in whole blood preincubated for 1 hr followed by antibody challenge after 4 hrs by flow cytometry
# [18] = target: AMPK alpha2/beta1/gamma1 (Homo sapiens) (UniProt P54646+P54619+Q9Y478); assay: Inhibition of recombinant human full length C-terminal His tagged AMPKalpha2beta1gamma1 expressed in baculovirus infected Sf9 cells assessed as change in enzyme activity at 1 uM in presence of 2 uM ATP relative to control; design: scale not given: the % may be the effect or the level left
# Chain of AMPK alpha2/beta1/gamma1 (Homo sapiens) (P54619 whole entry partner): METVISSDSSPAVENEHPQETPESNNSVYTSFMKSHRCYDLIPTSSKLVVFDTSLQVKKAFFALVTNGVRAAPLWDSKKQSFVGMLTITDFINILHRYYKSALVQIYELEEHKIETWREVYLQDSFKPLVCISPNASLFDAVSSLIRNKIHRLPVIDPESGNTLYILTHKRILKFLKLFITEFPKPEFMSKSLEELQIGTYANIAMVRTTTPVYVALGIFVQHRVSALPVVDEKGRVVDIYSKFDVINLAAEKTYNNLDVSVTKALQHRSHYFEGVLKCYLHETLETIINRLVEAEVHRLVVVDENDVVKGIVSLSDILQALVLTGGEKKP
# Chain of AMPK alpha2/beta1/gamma1 (Homo sapiens) (P54646 whole entry): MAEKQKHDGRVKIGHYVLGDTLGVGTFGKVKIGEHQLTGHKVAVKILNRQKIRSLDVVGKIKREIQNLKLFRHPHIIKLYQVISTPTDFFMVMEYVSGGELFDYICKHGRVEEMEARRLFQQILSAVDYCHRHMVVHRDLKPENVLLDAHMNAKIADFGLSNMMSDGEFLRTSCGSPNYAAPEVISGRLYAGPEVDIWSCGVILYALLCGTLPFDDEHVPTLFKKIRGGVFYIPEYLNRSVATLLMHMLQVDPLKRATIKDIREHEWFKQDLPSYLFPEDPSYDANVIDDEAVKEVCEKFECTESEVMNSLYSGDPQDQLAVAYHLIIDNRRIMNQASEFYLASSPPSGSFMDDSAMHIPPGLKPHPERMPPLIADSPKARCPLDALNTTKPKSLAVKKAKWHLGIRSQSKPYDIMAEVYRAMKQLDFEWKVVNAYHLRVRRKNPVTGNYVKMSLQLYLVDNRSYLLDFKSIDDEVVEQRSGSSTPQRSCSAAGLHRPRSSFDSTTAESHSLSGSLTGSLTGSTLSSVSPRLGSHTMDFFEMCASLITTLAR
# Chain of AMPK alpha2/beta1/gamma1 (Homo sapiens) (Q9Y478 2-270 partner limits assumed): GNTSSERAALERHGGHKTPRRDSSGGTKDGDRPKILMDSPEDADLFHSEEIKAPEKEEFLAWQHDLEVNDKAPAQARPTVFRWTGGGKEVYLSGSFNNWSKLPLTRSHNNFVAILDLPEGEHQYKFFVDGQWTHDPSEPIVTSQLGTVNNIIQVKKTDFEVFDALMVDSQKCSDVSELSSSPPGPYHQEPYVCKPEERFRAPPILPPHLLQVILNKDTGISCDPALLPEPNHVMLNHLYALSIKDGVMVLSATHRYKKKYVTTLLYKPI
# [19] = Cmax in mouse at 10 mg/kg, po; format: ADME, organism-based; design: dose 10 mg/kg, route oral; settings: in vivo
# [20] = target: Tyrosine-protein kinase Tec (Homo sapiens) (UniProt P42680); assay: Inhibition of recombinant full length N-terminal GST-tagged TEC (unknown origin) expressed in baculovirus infected Sf9 cells assessed as change in enzyme activity at 1 uM in presence of 2 uM ATP relative to control; design: scale not given: the % may be the effect or the level left
# [21] = target: STE20-like serine/threonine-protein kinase (Homo sapiens) (UniProt Q9H2G2); assay: Inhibition of recombinant human full length N-terminal GST-tagged SLK expressed in baculovirus infected Sf9 cells assessed as change in enzyme activity at 1 uM in presence of 2 uM ATP relative to control; design: scale not given: the % may be the effect or the level left
# [22] = target: Cyclin-dependent kinase 1/Cyclin A1 (Homo sapiens) (UniProt P06493+P78396); assay: Inhibition of recombinant human full length N-terminal GST-tagged CDK1/CyclinA1 expressed in baculovirus infected Sf9 cells assessed as change in enzyme activity at 1 uM in presence of 1 uM ATP relative to control; design: scale not given: the % may be the effect or the level left
# Chain of Cyclin-dependent kinase 1/Cyclin A1 (Homo sapiens) (P06493 whole entry, looked up): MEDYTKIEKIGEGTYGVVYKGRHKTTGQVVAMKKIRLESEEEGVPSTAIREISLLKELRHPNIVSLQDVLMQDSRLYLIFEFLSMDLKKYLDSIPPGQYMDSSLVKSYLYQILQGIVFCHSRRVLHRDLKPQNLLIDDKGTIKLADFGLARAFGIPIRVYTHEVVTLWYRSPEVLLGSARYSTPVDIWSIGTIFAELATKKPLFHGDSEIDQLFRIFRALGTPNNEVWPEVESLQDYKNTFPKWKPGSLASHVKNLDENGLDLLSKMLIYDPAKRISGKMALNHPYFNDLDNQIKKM
# Chain of Cyclin-dependent kinase 1/Cyclin A1 (Homo sapiens) (P78396 whole entry, looked up): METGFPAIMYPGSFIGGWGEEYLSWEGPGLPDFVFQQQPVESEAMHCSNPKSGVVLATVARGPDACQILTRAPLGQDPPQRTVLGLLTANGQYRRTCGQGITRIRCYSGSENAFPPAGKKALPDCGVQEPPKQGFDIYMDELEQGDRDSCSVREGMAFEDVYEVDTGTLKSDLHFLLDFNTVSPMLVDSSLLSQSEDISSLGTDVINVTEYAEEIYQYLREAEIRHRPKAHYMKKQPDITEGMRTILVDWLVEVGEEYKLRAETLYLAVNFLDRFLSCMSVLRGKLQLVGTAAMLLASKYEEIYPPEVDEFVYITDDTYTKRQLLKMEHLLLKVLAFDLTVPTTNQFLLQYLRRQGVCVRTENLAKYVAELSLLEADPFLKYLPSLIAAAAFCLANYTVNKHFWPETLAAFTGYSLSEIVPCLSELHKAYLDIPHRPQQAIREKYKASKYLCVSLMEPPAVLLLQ
# Mus musculus [23] = assay: Ex-vivo inhibition of BTK in C57BL/6J mouse assessed as anti-mouse IgD antibody stimulated BCR mediated CD69 level in whole blood isolated from 10 mg/kg, po bid treated mouse measured after 2 hrs post first dose by flow cytometry relative to control; format: functional; design: scale not given: the % may be the effect or the level left
# [24] = target: Tyrosine-protein kinase ABL1 (Homo sapiens) (UniProt P00519); assay: Inhibition of recombinant human N-terminal GST-tagged ABL1 (27 to end residues) expressed in baculovirus infected Sf9 cells assessed as change in enzyme activity at 1 uM in presence of 1 uM ATP relative to control; design: scale not given: the % may be the effect or the level left
# [25] = target: TGF-beta receptor type-2 (Homo sapiens) (UniProt P37173); assay: Inhibition of recombinant N-terminal GST-tagged TGFBR2 (unknown origin) expressed in baculovirus infected Sf9 cells assessed as change in enzyme activity at 1 uM in presence of 1 uM ATP relative to control; design: scale not given: the % may be the effect or the level left
# [26] = Volume of distribution at steady state in mouse at 3 mg/kg, iv; format: ADME, organism-based; settings: in vivo, read-out: Vdss
# Mus musculus [27] = assay: Ex-vivo inhibition of BTK in C57BL/6J mouse assessed as anti-mouse IgD antibody stimulated BCR mediated CD69 level in whole blood isolated from 10 to 100 mg/kg, po bid treated mouse measured after 2 hrs post first dose by flow cytometry relative to control; format: functional; design: scale not given: the % may be the effect or the level left
SMILES,Activity [2],Activity [3],Activity (Mus musculus [4]),Activity [5],Activity [6],IC50 [7],IC50 [8],Activity [9],AUC/dose (Mus musculus [10]),Activity [11],Activity [12],Activity [13],Activity [14],Drug metabolism [16],IC50 [17],Activity [18],Cmax [19],Activity [20],Activity [21],Activity [22],further results
CCN1CCN(Cc2ccc(-c3cc4c(-c5cccc(N6CCOc7cc(C8CC8)cc(F)c7C6=O)c5CO)ccnc4[nH]3)nc2)CC1,1%,1%,47%,4%,2%,> 10 µM,0.0084 µM,-6%,27 µM·h,-14%,-4%,-5%,-7%,<= 0.04 nmol/min/mg,5.06 µM,2%,2.3 µM,-35%,-5%,1%,Activity (Mus musculus [1]): 45%; Activity (Mus musculus [15]): 83%; Activity (Mus musculus [23]): 48%; Activity [24]: -41%; Activity [25]: 2%; Vd [26]: 1.9 L/kg
O=C1c2c(F)cc(C3CC3)cc2OCCN1c1cccc(-c2ccnc3[nH]c(C4=CCN(C5COC5)CC4)cc23)c1CO,-4%,3%,9.5%,-6%,3%,> 10 µM,0.0419 µM,5%,25.8 µM·h,-3%,-10%,-5%,4%,< 0.04 nmol/min/mg,> 30 µM,1%,7.6 µM,-31%,-9%,-3%,Activity (Mus musculus [27]): >90%; Activity [24]: -16%; Activity [25]: 3%; Vd [26]: 0.6 L/kg
